# Laboratory results from US20230416203A1, “POTENT AND SELECTIVE INHIBITORS OF THE CALCIUM-ACTIVATED POTASSIUM CHANNEL, KCA3.1, FOR USE AS PLATFORM THERAPEUTICS” (priority 2020, published 2023).
# Tests used:
# KCa1.1 = target: T1, KCa1.1 (Homo sapiens, UniProt Q12791); test: Potassium channels patch-clamp (QPatch), KCa1.1; format: cell-based
# T1 construct: expressed in transfected cells; host or cells: HEK
# Protocol: (§1) The effects of Group 4 compounds on related potassium channels were evaluated by patch-clamp using a QPatch HTX automated electrophysiology platform (Sophion, Denmark). The giga-seal and whole-cell requirements for the automated electrophysiology were the following: minimum seal resistance=0.1 GO, holding potential=−80 mV, holding pressure=−20 mbar; and positioning pressure=−70 mbar.
# KV1.3 = target: T2, KV1.3 (Mus musculus, UniProt P16390); test: Potassium channels patch-clamp (QPatch), KV1.3; format: cell-based
# T2 construct: expressed in transfected cells; host or cells: L929
# Protocol: as §1
# CYP-2D6 = target: T3, CYP-2D6 (Homo sapiens, UniProt P10635); test: Cytochrome P450 enzymes inhibition assay, CYP-2D6; format: in vitro ADME; conditions: for CYP IC50/KCa3.1 IC50: CYP-2D6
# T3 construct: from tissue
# Source text: (§2) The metabolite formation for each substrate under the above conditions was estimated using the following formula: Percent inhibition=[1−(test area ratio/control area ratio)]×100.
# in vitro = conditions: human, microsomes, pH 7.4
# CYP-3A4 = target: T4, CYP-3A4 (Homo sapiens, UniProt P08684); test: Cytochrome P450 enzymes inhibition assay, CYP-3A4; format: in vitro ADME; conditions: for CYP IC50/KCa3.1 IC50: CYP-3A4
# T4 construct: from tissue
# Source text: as §2
# KV3.1 = target: T5, KV3.1 (Mus musculus, UniProt P15388); test: Potassium channels patch-clamp (QPatch), KV3.1; format: cell-based
# T5 construct: expressed in transfected cells; host or cells: L929
# T5 sequence (P15388 1-511): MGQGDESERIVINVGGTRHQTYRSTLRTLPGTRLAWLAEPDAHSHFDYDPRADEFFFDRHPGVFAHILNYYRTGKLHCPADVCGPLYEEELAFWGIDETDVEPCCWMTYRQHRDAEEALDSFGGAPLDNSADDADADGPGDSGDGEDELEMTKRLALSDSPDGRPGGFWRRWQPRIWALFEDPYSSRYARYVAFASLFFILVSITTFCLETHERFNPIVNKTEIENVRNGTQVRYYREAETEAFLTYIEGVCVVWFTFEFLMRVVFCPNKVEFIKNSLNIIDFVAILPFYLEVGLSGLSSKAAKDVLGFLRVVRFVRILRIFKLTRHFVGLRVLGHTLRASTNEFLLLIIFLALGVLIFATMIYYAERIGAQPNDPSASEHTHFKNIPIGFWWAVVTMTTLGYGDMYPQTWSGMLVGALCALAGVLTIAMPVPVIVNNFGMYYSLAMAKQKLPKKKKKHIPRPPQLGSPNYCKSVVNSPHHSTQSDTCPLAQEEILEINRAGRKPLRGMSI
# Protocol: as §1
# [1] = target: CaV1.2 channel over KCa3.1 (Homo sapiens, UniProt Q13936); test: in vitro; conditions: pH 7.4
# KV1.1 = target: T6, KV1.1 (Mus musculus, UniProt P16388); test: Potassium channels patch-clamp (QPatch), KV1.1; format: cell-based
# T6 construct: expressed in transfected cells; host or cells: L929
# Protocol: as §1
# CaV1.2 channel = CaV1.2 channel (Homo sapiens, UniProt Q13936); test: cell-based
# CYP-2C9 = CYP-2C9 (Homo sapiens, UniProt P11712); test: Cytochrome P450 enzymes inhibition assay, CYP-2C9; format: in vitro ADME; conditions: for CYP IC50/KCa3.1 IC50: CYP-2C9
# Source text: as §2
# KV1.7 = target: T7, KV1.7 (Homo sapiens, UniProt Q96RP8); test: Potassium channels patch-clamp (QPatch), KV1.7; format: cell-based
# T7 construct: expressed in transfected cells; host or cells: CHL
# Protocol: as §1
# KV1.5 = target: T8, KV1.5 (Homo sapiens, UniProt P22460); test: Potassium channels patch-clamp (QPatch), KV1.5; format: cell-based
# T8 construct: expressed in transfected cells; host or cells: MEL
# Protocol: as §1
# KV11.1 (hERG) = target: T9, KV11.1 (hERG) (Homo sapiens, UniProt Q12809); test: Potassium channels patch-clamp (QPatch), KV11.1 (hERG); format: cell-based
# T9 construct: host or cells: CHO
# Protocol: as §1
# KV1.2 = target: T10, KV1.2 (Rattus norvegicus, UniProt P63142); test: Potassium channels patch-clamp (QPatch), KV1.2; format: cell-based
# T10 construct: expressed in transfected cells; host or cells: B82
# Protocol: as §1
# CYP-IA2 = target: T11, CYP-IA2 (Homo sapiens, UniProt P05177); test: Cytochrome P450 enzymes inhibition assay, CYP-IA2; format: in vitro ADME; conditions: for CYP IC50/KCa3.1 IC50: CYP-IA2
# T11 construct: from tissue
# T11 sequence (P05177 1-516): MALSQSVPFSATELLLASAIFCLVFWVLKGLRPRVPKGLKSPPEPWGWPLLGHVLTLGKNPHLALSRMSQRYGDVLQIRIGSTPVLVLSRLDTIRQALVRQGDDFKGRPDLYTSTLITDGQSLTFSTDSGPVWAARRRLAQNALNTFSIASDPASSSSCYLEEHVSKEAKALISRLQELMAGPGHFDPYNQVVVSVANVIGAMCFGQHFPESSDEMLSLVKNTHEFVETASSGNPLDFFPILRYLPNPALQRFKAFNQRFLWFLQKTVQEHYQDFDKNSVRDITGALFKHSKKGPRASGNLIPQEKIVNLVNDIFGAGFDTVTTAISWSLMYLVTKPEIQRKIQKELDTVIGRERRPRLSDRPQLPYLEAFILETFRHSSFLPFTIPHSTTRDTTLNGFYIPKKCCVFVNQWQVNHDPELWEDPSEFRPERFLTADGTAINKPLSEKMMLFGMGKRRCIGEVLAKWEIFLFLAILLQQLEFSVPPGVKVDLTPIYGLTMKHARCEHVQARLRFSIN
# Source text: as §2
# KCa2.2 = target: T12, KCa2.2 (Rattus norvegicus, UniProt P70604); test: Potassium channels patch-clamp (QPatch), KCa2.2; format: cell-based
# T12 construct: expressed in transfected cells; host or cells: HEK
# Protocol: as §1
# CYP-2C19 = CYP-2C19 (Homo sapiens, UniProt P33261); test: Cytochrome P450 enzymes inhibition assay, CYP-2C19; format: in vitro ADME; conditions: for CYP IC50/KCa3.1 IC50: CYP-2C19
# Source text: as §2
# KV1.4 = target: T13, KV1.4 (Homo sapiens, UniProt P22459); test: Potassium channels patch-clamp (QPatch), KV1.4; format: cell-based
# T13 construct: expressed in transfected cells; host or cells: LTK
# Protocol: as §1
# [2] = Microsomal stability studies; conditions: for Microsomal Stability (human) % remaining @ 30 mins: human microsomes, 1 μM; for drug/control (% remaining @ 30 mins): ratio to Verapamil control
# Sequence of CYP-2C9 (P11712 whole entry): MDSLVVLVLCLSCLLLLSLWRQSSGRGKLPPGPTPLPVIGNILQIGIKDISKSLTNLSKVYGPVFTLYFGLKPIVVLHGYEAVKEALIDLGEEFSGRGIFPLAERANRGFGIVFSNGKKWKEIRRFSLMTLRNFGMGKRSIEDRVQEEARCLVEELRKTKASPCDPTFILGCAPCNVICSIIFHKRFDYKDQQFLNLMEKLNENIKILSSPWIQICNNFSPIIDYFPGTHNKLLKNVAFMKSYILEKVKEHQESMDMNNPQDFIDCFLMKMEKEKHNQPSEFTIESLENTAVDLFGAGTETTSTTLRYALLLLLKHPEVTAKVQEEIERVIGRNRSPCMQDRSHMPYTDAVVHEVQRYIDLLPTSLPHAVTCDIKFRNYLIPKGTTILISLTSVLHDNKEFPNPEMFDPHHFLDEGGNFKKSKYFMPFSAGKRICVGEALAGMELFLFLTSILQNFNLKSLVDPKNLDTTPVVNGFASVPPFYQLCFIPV
# Sequence of CYP-2C19 (P33261 whole entry): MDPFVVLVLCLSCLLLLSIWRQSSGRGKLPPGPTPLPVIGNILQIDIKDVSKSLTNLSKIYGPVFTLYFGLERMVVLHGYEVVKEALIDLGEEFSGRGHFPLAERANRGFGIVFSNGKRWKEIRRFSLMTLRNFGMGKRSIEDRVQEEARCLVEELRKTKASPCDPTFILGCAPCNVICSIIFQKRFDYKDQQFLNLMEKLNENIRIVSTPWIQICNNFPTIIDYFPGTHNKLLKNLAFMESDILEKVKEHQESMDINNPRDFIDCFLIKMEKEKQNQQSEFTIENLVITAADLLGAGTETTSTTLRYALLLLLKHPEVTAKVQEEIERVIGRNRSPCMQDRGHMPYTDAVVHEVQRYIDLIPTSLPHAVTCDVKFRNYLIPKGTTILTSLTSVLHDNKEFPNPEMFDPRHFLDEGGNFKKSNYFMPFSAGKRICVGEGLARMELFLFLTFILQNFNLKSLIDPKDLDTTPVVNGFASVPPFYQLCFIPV
# T3 sequence (P10635 whole entry): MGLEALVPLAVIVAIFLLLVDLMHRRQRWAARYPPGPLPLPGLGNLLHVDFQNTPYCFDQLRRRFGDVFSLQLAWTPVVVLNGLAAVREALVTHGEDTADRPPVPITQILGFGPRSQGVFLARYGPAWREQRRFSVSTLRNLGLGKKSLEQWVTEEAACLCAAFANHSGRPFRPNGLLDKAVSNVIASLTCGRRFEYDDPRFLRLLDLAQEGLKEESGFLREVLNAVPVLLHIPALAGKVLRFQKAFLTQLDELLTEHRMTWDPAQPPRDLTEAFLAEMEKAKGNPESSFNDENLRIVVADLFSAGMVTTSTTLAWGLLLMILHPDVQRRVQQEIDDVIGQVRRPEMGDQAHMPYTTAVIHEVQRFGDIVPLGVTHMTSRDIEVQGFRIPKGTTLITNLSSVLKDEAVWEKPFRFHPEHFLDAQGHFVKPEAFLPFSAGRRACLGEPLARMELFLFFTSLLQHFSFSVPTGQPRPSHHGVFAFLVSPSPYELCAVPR
# T4 sequence (P08684 whole entry): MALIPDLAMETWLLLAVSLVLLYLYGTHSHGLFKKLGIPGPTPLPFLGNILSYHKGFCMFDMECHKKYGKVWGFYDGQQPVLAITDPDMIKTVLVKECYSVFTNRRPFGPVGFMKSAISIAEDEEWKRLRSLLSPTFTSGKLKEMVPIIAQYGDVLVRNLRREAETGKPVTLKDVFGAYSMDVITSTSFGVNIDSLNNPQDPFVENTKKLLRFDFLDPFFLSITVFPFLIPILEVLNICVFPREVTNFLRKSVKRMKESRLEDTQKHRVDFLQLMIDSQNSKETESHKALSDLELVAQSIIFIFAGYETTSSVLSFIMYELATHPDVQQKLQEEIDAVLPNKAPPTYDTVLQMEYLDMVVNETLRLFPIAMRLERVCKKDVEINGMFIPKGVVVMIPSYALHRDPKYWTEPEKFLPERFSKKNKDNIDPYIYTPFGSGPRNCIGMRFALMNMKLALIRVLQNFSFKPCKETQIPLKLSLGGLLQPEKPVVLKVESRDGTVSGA
# Sequence of CaV1.2 channel (Q13936 whole entry): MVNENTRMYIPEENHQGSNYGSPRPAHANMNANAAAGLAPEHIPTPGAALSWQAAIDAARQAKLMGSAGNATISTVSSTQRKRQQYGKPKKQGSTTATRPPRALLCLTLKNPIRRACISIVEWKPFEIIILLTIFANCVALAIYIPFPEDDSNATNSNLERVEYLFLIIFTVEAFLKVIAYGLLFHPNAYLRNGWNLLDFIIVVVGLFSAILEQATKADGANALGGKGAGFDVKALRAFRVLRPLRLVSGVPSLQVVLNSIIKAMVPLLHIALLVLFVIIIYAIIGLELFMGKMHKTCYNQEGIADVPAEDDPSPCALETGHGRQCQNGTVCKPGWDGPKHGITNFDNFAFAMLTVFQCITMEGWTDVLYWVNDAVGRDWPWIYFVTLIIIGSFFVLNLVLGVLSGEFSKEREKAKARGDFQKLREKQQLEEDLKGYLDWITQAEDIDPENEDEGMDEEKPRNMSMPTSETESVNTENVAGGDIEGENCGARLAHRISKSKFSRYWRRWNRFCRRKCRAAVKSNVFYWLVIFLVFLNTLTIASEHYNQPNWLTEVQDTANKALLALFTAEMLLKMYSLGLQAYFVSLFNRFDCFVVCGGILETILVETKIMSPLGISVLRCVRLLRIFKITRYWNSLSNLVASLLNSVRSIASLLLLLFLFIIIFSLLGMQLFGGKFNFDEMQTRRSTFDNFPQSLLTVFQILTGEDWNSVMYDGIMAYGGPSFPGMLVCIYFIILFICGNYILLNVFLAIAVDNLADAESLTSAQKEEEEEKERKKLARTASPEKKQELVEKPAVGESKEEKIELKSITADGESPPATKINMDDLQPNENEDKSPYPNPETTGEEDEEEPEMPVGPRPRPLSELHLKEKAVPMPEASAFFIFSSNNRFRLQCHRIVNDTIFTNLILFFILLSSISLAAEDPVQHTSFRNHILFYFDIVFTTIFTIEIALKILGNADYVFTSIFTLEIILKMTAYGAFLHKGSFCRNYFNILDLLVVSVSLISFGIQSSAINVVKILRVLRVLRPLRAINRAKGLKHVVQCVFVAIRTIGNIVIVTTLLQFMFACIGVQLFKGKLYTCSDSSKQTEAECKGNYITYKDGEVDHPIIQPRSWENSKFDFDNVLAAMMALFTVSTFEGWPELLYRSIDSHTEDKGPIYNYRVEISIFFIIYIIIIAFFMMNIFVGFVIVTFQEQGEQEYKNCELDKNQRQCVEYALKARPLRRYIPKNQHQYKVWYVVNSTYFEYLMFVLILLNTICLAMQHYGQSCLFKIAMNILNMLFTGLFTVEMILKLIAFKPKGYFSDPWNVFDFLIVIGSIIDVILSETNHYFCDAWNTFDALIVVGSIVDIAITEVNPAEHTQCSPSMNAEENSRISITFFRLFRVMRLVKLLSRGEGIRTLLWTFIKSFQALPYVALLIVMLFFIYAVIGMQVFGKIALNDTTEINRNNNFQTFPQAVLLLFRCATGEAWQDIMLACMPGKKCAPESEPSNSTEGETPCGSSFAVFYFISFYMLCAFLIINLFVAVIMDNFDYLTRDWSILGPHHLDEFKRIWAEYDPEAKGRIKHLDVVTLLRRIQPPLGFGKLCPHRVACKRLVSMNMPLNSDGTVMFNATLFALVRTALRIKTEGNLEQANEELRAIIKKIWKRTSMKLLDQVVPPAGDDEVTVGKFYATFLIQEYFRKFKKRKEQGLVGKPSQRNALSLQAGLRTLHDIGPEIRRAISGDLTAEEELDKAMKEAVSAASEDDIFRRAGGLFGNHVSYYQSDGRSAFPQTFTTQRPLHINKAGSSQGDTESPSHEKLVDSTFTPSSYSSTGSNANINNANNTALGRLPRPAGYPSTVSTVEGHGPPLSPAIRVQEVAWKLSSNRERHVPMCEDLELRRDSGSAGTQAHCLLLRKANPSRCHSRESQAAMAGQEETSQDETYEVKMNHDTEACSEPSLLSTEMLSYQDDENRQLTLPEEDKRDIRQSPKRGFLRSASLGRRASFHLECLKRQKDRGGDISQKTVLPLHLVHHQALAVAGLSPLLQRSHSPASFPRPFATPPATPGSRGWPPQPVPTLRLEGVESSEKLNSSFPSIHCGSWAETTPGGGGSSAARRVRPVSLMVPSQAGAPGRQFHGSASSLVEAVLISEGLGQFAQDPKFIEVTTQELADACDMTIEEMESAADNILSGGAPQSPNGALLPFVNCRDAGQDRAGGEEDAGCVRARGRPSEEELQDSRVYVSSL
# Sequence of CaV1.2 channel over KCa3.1 (Q13936 whole entry): as above
# T2 sequence (P16390 whole entry): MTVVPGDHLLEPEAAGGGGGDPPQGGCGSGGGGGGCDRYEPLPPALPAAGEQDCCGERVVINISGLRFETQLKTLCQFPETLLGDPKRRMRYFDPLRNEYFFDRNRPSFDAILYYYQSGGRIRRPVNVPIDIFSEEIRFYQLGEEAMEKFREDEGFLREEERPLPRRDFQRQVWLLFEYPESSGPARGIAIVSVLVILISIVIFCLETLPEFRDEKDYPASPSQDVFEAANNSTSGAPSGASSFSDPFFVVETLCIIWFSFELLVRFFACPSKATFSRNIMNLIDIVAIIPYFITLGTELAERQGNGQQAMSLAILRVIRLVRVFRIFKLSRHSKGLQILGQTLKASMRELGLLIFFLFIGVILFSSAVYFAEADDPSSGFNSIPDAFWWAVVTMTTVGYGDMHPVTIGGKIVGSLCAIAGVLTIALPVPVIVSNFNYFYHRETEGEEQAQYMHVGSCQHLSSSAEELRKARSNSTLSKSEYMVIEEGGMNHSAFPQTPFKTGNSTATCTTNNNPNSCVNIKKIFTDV
Structure (SMILES),IC50 (KCa1.1),IC50 (KV1.3),CYP IC50/KCa3.1 IC50 (CYP-2D6),half-life at 1 μM (in vitro),CYP IC50/KCa3.1 IC50 (CYP-3A4),IC50 (KV3.1),selectivity ratio [1],IC50 (KV1.1),IC50 (CaV1.2 channel),CYP IC50/KCa3.1 IC50 (CYP-2C9),IC50 (KV1.7),IC50 (KV1.5),IC50 (KV11.1 (hERG)),IC50 (KV1.2),CYP IC50/KCa3.1 IC50 (CYP-IA2),IC50 (KCa2.2),CYP IC50/KCa3.1 IC50 (CYP-2C19),IC50 (KV1.4),Microsomal Stability (human) % remaining @ 30 mins [2],drug/control (% remaining @ 30 mins) [2],other results
"COC(=O)C1=CNC=C(C(=O)OC)C1c1ccc(F)c(C(F)(F)F)c1 [Compound 103, Dimethyl 4-(4-fluoro-3-(trifluoromethyl)phenyl)-1,4-dihydropyridine-3,5-dicarboxylate]",> 10 µM,> 10 µM,3279,16 min,3279,> 10 µM,2210,> 10 µM,13.5 µM,836,> 10 µM,> 10 µM,> 10 µM,> 10 µM,3279,> 10 µM,3279,> 10 µM,25%,3.7,–
COC(=O)C1=C(C)NC(C)=C(C(=O)OC)C1c1ccc(F)c(C(F)(F)F)c1 [Compound 101],> 10 µM,> 10 µM,1226,22 min,79.75,> 10 µM,200,> 10 µM,3.2 µM,162.5,> 10 µM,> 10 µM,> 10 µM,> 10 µM,558,> 10 µM,1226,> 10 µM,53%,1.6,IC50 (CYP-2D6; microsomes): > 20 µM; IC50 (CYP-3A4; microsomes): 1300 nM; IC50 (CYP-2C9; microsomes): 2600 nM; IC50 (CYP-IA2; microsomes): 9.1 µM; IC50 (CYP-2C19; microsomes): > 20 µM
